Assay results from US12098145B2 (Libra Therapeutics, Inc., priority 2022, dated 2024).

The compounds below were run against T1, TRPML1 (Homo sapiens, UniProt Q9GZU1) (assay: Cellular TRPML1 assay (FLIPR, GCaMP6f calcium read-out)). Details: not given.
T1 construct: expressed in transfected cells; host or cells: HEK T-REx cells stably expressing GCaMP6f and TRPML1
Format: cell-based
Outline: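 HEK T-REx cells stably expressing TRPML1 and GCaMP6f, seeded 24 h before in Optimem + 0.5% FBS. After ~10 min pre-incubation at room temperature, compounds in Ca2+-free Tyrode's buffer were injected on FLIPR Tetra (final DMSO 0.5%). Calcium fluorescence kinetics followed for 300 s.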

T1 sequence (Q9GZU1 whole entry): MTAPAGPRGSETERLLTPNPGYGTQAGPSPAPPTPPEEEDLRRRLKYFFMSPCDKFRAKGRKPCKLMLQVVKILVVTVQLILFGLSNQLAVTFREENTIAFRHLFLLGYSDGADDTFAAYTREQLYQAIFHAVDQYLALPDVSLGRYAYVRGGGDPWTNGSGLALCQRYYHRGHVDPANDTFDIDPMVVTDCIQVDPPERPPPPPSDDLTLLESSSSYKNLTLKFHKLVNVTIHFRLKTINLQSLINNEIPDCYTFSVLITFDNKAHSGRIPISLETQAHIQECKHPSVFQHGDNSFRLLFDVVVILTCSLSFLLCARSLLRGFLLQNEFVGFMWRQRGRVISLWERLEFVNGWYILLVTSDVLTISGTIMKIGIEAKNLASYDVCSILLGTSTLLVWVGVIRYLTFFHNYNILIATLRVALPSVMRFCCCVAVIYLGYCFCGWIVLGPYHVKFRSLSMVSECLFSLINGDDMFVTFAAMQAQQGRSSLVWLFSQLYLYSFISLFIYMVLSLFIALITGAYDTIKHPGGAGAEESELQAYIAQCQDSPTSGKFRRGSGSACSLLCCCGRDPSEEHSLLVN

SMILES	EC50 [nM]
O=C(Nc1cc(F)c(N2C3CCCC2CC3)c(F)c1)c1nc(N2CCCC2)oc1CC(F)(F)F [Example 210, N-(4-(8-azabicyclo[3.2.1]octan-8-yl)-3,5-difluorophenyl)-2-(pyrrolidin-1-yl)-5-(2,2,2-trifluoroethyl)oxazole-4-carboxamide]	10 to 1000

Same assay, conditions: HEKT-REx/GCaMP6f/TRPML1 cells, FLIPR TETRA, kinetic response over 300 seconds; read-out: TRPML1 FLIPR pEC50 (converted)

EC50 [nM]	SMILES
1000 to 10000	CCc1oc(N2CC(CC)(CC)C2)nc1C(=O)Nc1cc(C)c(NC2CC3CC(C3)C2)c(F)c1 (stereo not shown) [Example 253, N-(4-(bicyclo[3.1.1]heptan-3-ylamino)-3-fluoro-5-methylphenyl)-2-(3,3-diethylazetidin-1-yl)-5-ethyloxazole-4-carboxamide]
1000 to 10000	COC1CN(c2nc(C(=O)Nc3ccc(OC4CCCC4(F)F)c(F)c3)c(CC(F)(F)F)o2)C1 (stereo not shown) [Example 8, N-(4-((2,2-difluorocyclopentyl)oxy)-3-fluorophenyl)-2-(3-methoxyazetidin-1-yl)-5-(2,2,2-trifluoroethyl)oxazole-4-carboxamide]
1000 to 10000	CCC1(CC)CN(c2nc(C(=O)Nc3cc(C)c(NC4CC5CC(C5)C4)c(F)c3)c(CCF)o2)C1 (stereo not shown) [Example 292, N-(4-(bicyclo[3.1.1]heptan-3-ylamino)-3-fluoro-5-methylphenyl)-2-(3,3-diethylazetidin-1-yl)-5-(2-fluoroethyl)oxazole-4-carboxamide]
10000 to 100000	O=C(Nc1cc(F)c(OC2CC3(CCC3)C2)c(F)c1)c1nc(N2CCCC2)oc1CC(F)(F)F [Example 139, N-(3,5-difluoro-4-(spiro[3.3]heptan-2-yloxy)phenyl)-2-(pyrrolidin-1-yl)-5-(2,2,2-trifluoroethyl)oxazole-4-carboxamide]
10000 to 100000	NCC1CN(c2nc(C(=O)Nc3ccc(OC4CCCC4(F)F)c(F)c3)c(CC(F)(F)F)o2)C1 (stereo not shown) [Example 88, 2-[3-(aminomethyl)azetidin-1-yl]-N-{4-[(2,2-difluorocyclopentyl)oxy]-3-fluorophenyl}-5-(2,2,2-trifluoroethyl)oxazole-4-carboxamide]
10000 to 100000	Cc1oc(N2CCC(CN3CCC3)C2)nc1C(=O)Nc1ccc(N2CCCCC2)c(F)c1 (stereo not shown) [Example 106, 2-(3-(azetidin-1-ylmethyl)pyrrolidin-1-yl)-N-(3-fluoro-4-(piperidin-1-yl)phenyl)-5-methyloxazole-4-carboxamide]
10 to 1000	O=C(Nc1ccc(OC2CC3C[C@@H]3C2)c(F)c1)c1nc(N2CC3CCOC3C2)oc1CC(F)(F)F (stereo partly drawn) [Example 187, N-(4-(cis-bicyclo[3.1.0]hexan-3-yloxy)-3-fluorophenyl)-2-(hexahydro-5H-furo[2,3-c]pyrrol-5-yl)-5-(2,2,2-trifluoroethyl)oxazole-4-carboxamide]
1000 to 10000	CCC1(CC)CN(c2nc(C(=O)Nc3cc(C)c(O[C@@H]4C[C@@H]5C[C@@H]5C4)c(F)c3)c(CN3CCCC3)o2)C1 [Example 298, N-(4-(cis-bicyclo[3.1.0]hexan-3-yloxy)-3-fluoro-5-methylphenyl)-2-(3,3-diethylazetidin-1-yl)-5-(pyrrolidin-1-ylmethyl)oxazole-4-carboxamide]
1000 to 10000	CCc1oc(N2CC(CC)(OC)C2)nc1C(=O)Nc1cc(F)c(O[C@@H]2C[C@@H]3C[C@@H]3C2)cc1F [Example 251, N-(4-(cis-bicyclo[3.1.0]hexan-3-yloxy)-2,5-difluorophenyl)-5-ethyl-2-(3-ethyl-3-methoxyazetidin-1-yl)oxazole-4-carboxamide]
10 to 1000	CCC1(OC)CN(c2nc(C(=O)Nc3cc(F)c(N4CCC5CC5C4)c(F)c3)c(CC(F)(F)F)o2)C1 (stereo not shown) [Example 204, N-(4-(3-azabicyclo[4.1.0]heptan-3-yl)-3,5-difluorophenyl)-2-(3-ethyl-3-methoxyazetidin-1-yl)-5-(2,2,2-trifluoroethyl)oxazole-4-carboxamide]
1000 to 10000	CCC1(OC)CN(c2nc(C(=O)Nc3cc(O)c(OC4CC5CC(C5)C4)c(F)c3)c(CC(F)(F)F)o2)C1 (stereo not shown) [Example 266, N-(4-(bicyclo[3.1.1]heptan-3-yloxy)-3-fluoro-5-hydroxyphenyl)-2-(3-ethyl-3-methoxyazetidin-1-yl)-5-(2,2,2-trifluoroethyl)oxazole-4-carboxamide]
10 to 1000	CCc1oc(N2CC(C)(OC)C2)nc1C(=O)Nc1cc(C)c(O[C@@H]2C[C@@H]3C[C@@H]3C2)c(F)c1 [Example 226, N-(4-(cis-bicyclo[3.1.0]hexan-3-yloxy)-3-fluoro-5-methylphenyl)-5-ethyl-2-(3-methoxy-3-methylazetidin-1-yl)oxazole-4-carboxamide]
1000 to 10000	CC(CC(F)(F)F)Oc1ccc(NC(=O)c2nc(N3CCCC3)oc2CC(F)(F)F)cc1F (stereo not shown) [Example 60, N-(3-fluoro-4-((4,4,4-trifluorobutan-2-yl)oxy)phenyl)-2-(pyrrolidin-1-yl)-5-(2,2,2-trifluoroethyl) oxazole-4-carboxamide]
10000 to 100000	CCc1oc(N2CC(CC)(OC)C2)nc1C(=O)Nc1ccc(O[C@@H]2C[C@@H]3C[C@@H]3C2)c(F)c1F [Example 250]
10 to 1000	O=C(Nc1cc(F)c(OC2CC3C[C@H]3C2)c(F)c1)c1nc(N2CC3(CCCC3)C2)oc1CC(F)(F)F (stereo partly drawn) [Example 41, N-(4-(cis-bicyclo[3.1.0]hexan-3-yloxy)-3,5-difluorophenyl)-2-(2-azaspiro[3.4]octan-2-yl)-5-(2,2,2-trifluoroethyl)oxazole-4-carboxamide]
1000 to 10000	COC1(C)CN(c2nc(C(=O)Nc3cc(O)c(OC4CC5CC(C5)C4)c(F)c3)c(CC(F)(F)F)o2)C1 (stereo not shown) [Example 265, N-(4-(bicyclo[3.1.1]heptan-3-yloxy)-3-fluoro-5-hydroxyphenyl)-2-(3-methoxy-3-methylazetidin-1-yl)-5-(2,2,2-trifluoroethyl)oxazole-4-carboxamide]
1000 to 10000	COC1CCC(Oc2ccc(NC(=O)c3nc(N4CCCC4)oc3CC(F)(F)F)cc2F)C1 (stereo not shown) [Example 43, N-{3-fluoro-4-[(3-methoxycyclopentyl)oxy]phenyl}-2-(pyrrolidin-1-yl)-5-(2,2,2-trifluoroethyl)oxazole-4-carboxamide]
1000 to 10000	COCc1oc(N2CCCC2)nc1C(=O)Nc1cc(F)c(N2CCCCC2)c(F)c1 [Example 102, N-[3,5-difluoro-4-(piperidin-1-yl)phenyl]-5-(methoxymethyl)-2-(pyrrolidin-1-yl) oxazole-4-carboxamide]
10 to 1000	CCCc1oc(N2CCCC2)nc1C(=O)Nc1cc(F)c(O[C@@H]2C[C@@H]3C[C@@H]3C2)c(F)c1 [Example 274, N-(4-(cis-bicyclo[3.1.0]hexan-3-yloxy)-3,5-difluorophenyl)-5-propyl-2-(pyrrolidin-1-yl)oxazole-4-carboxamide]
1000 to 10000	O=C(Nc1ccc(OC2CCCC2)c(O)c1)c1nc(N2CCCC2)oc1CC(F)(F)F [Example 85, N-(4-(cyclopentyloxy)-3-hydroxyphenyl)-2-(pyrrolidin-1-yl)-5-(2,2,2-trifluoroethyl)oxazole-4-carboxamide]
10000 to 100000	Cc1oc(NC2CCCC23CCCO3)nc1C(=O)Nc1ccc(N2CCCCC2)c(F)c1 (stereo not shown) [Example 95, 2-((1-oxaspiro[4.4]nonan-6-yl)amino)-N-(3-fluoro-4-(piperidin-1-yl)phenyl)-5-methyloxazole-4-carboxamide]
1000 to 10000	CCC1(CC)CN(c2nc(C(=O)Nc3cc(C)c4c(c3)CCN4C3CC4CC4C3)c(CC(F)(F)F)o2)C1 (stereo not shown) [Example 310, N-(1-(bicyclo[3.1.0]hexan-3-yl)-7-methylindolin-5-yl)-2-(3,3-diethylazetidin-1-yl)-5-(2,2,2-trifluoroethyl)oxazole-4-carboxamide]
1000 to 10000	O=C(Nc1ccc(OC2CCCCC2)c(F)c1)c1nc(N2CCCC2)oc1CC(F)(F)F [Example 65, N-(4-(cyclohexyloxy)-3-fluorophenyl)-2-(pyrrolidin-1-yl)-5-(2,2,2-trifluoroethyl)oxazole-4-carboxamide]
1000 to 10000	O=C(Nc1ccc(OC2CCCC2)c(F)c1)c1nc(N2CCC3(CC3)C2)oc1CC(F)(F)F [Example 57, N-(4-(cyclopentyloxy)-3-fluorophenyl)-2-(5-azaspiro[2.4]heptan-5-yl)-5-(2,2,2-trifluoroethyl)oxazole-4-carboxamide]
1000 to 10000	O=C(Nc1ccc(OC2CCCC2(F)F)c(F)c1)c1nc(N2CC3C(C2)C3(F)F)oc1CC(F)(F)F (stereo not shown) [Example 10, 2-{6,6-difluoro-3-azabicyclo[3.1.0]hexan-3-yl}-N-{4-[(2,2-difluorocyclopentyl)oxy]-3-fluorophenyl}-5-(2,2,2-trifluoroethyl)oxazole-4-carboxamide]
10 to 1000	CCC1(CC)CN(c2nc(C(=O)Nc3ccc(N4CCCCC4)c(F)c3)c(CC(F)(F)F)o2)C1 [Example 216, 2-(3,3-diethylazetidin-1-yl)-N-(3-fluoro-4-(piperidin-1-yl)phenyl)-5-(2,2,2-trifluoroethyl)oxazole-4-carboxamide]
1000 to 10000	O=C(Nc1ccc(OC2COCC2(F)F)c(F)c1)c1nc(N2CCC3(CC3)C2)oc1CC(F)(F)F (stereo not shown) [Example 63, N-(4-((4,4-difluorotetrahydrofuran-3-yl)oxy)-3-fluorophenyl)-2-(5-azaspiro[2.4]heptan-5-yl)-5-(2,2,2-trifluoroethyl)oxazole-4-carboxamide]
10000 to 100000	Cc1oc(N2CCC3(CCC3)C2)nc1C(=O)Nc1ccc(N2CCCCC2)c(F)c1 [Example 92, N-(3-fluoro-4-(piperidin-1-yl)phenyl)-5-methyl-2-(6-azaspiro[3.4]octan-6-yl)oxazole-4-carboxamide]
10 to 1000	CCC1(CC)CN(c2nc(C(=O)Nc3cc(F)c(OC4CCCOC4)c(F)c3)c(CC(F)(F)F)o2)C1 (stereo not shown) [Example 137, 2-(3,3-diethylazetidin-1-yl)-N-(3,5-difluoro-4-((tetrahydro-2H-pyran-3-yl)oxy)phenyl)-5-(2,2,2-trifluoroethyl)oxazole-4-carboxamide]

SMILES	EC50 [nM]
Cc1oc(N2C3CCC2COC3)nc1C(=O)Nc1ccc(N2CCCCC2)c(F)c1 [Example 98, 2-(3-oxa-8-azabicyclo[3.2.1]octan-8-yl)-N-(3-fluoro-4-(piperidin-1-yl)phenyl)-5-methyloxazole-4-carboxamide]	10000 to 100000
